The data set in a line: gradient 5% acetonitrile 3 min, to 50% in 2 min, to 85% in 15 min, held 3 min, 100 µL/min. The note with it: column: Zorbax Extend-C18 2.1 x 50 mm; eluents: water / acetonitrile, 0.1% formic acid. The essentials: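 Each retention time is based on an adduct peak selected computationally and verified by manual inspection. Measurements used HPLC–quadrupole time-of-flight mass spectrometry in positive and negative ionization mode on mixtures of ~100 pure standards. Chromatography ran on a Zorbax Extend-C18 column (2.1 × 50 mm, 1.8 μm) at 100 μL/min with water and acetonitrile, each containing 0.1% formic acid, and dead and dwell volumes of 40 μL and 900 μL.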
`Cc1cccc(N2CCN(C(=O)c3cn(-c4ccc(C#N)cc4)cn3)CC2)c1`: the RP-LC retention time is 759 s.
As for `CCS(=O)(=O)c1nc2ccc(NS(=O)(=O)c3cc(OC)ccc3OC)cc2s1`, the figure is 833 s; as for `Cc1ccc(NC(=O)N2CCC(c3nc(C(=O)N4CCCC4)c(C)o3)CC2)cc1`, 759 s; as for `COc1cc(=O)n2c(c1C(=O)NC1CCCCCC1)CCCC2`, 694 s.
For `O=C(Cc1ccc(Cl)cc1)N1CCc2nc[nH]c2C1`, the RP-LC retention time came to 590 s.
Next, `Cc1ccnc(N2CCC(C(=O)NCCCN3CCCCCC3)CC2)n1`: 556 s; `CC(C)CNC(=O)CCc1nc2ccccc2n(CC(=O)NCc2ccccc2)c1=O`: 769 s; `Cc1ccc2cccc(Oc3ncnc(N)c3[N+](=O)[O-])c2n1`: 623 s.
Next, `CCN(CC)C(=O)c1ccc2c(c1)N(CC(=O)N1CCOCC1)C(=O)CS2`: 642 s.
Next, `O=C(Nc1ccc(C2(C(=O)N3CCCCCC3)CCC2)cc1)C1CC1`: 844 s; `CCc1ccc(NC(=O)c2sc(-c3cccn3CC)nc2C)cc1`: 1260 s.
In turn, `CN(CC1CCOC1)C(=O)Nc1ccc(F)c(Cl)c1` (stereo unspecified) displayed an RP-LC retention time of 709 s.
Compound `Cc1cccc(N2CCN(S(=O)(=O)c3cc4n(c3)CCCN(C(C)C)C4=O)CC2)c1` had an RP-LC retention time of 921 s.
Next, `COc1ccc(OCCn2c(C(F)(F)F)nc3cc4c(cc32)OCCO4)cc1`: 985 s; `O=C1Cc2cc(NC(=O)NCCCc3ccccc3)ccc2N1`: 657 s.
Next, `Cc1ccc(-c2noc(-c3nc(C4CC4)no3)n2)cc1`: 1160 s; `Cc1csc(CN2CCN(C(=O)c3cc(Cl)ccc3Cl)CC2)n1`: 654 s; `COc1cccc(CCC(=O)N2C[C@@H]3C[C@H](NC(=O)c4ccccc4)[C@H]2C3)c1`: 793 s.
As for `Cn1c(=O)n(C)c2cc(CNCCC3=CCCCC3)ccc21`, the figure is 600 s; as for `Cc1csc(-c2cc(S(=O)(=O)Nc3ccc(F)cc3Cl)cn2CC(=O)N2CCCC2)n1`, 944 s.
As for `CCN1C(=O)CCc2cc(NC(=O)Cc3c(F)cccc3Cl)ccc21`, the RP-LC retention time is 792 s.
Next, `CCS(=O)(=O)N1C[C@@H](COc2cccnc2)[C@H](c2ccccn2)C1`: 561 s; `CCCc1cc(N2CCN(C(=O)c3ccn(CC)n3)CC2)nc2nnc(CC)n12`: 616 s; `CCC1CN(C(=O)N2CCC(C(=O)NCCN3CCCCCC3)CC2)c2ccccc2O1` (stereo unspecified): 660 s.
As for `Cc1noc(C)c1Cc1c(C(=O)NCCn2c(C)cnc2C2CC2)noc1C`, the figure is 623 s.
The compound `Cc1nc2cc(-c3noc(C4(c5ccccc5)CC4)n3)ccc2o1` returned an RP-LC retention time of 1110 s.
As for `CC1CN(C(=O)COc2ccc3ccccc3c2)c2ccccc2NC1=O` (stereo unspecified), the figure is 825 s; as for `CN1CCCc2cc(C(=O)NC3CCCCCC3)sc21`, 755 s; as for `CCOC(=O)c1cccc(NC(=O)N2CCN(C)c3ncccc32)c1`, 637 s.
As for `CCn1cc(S(=O)(=O)N2CCCC(c3nnnn3-c3ccccc3)C2)cn1` (stereo unspecified), the figure is 807 s; as for `Cc1ccc(S(=O)(=O)Cc2noc(CCNS(=O)(=O)c3ccc(C)cc3)n2)cc1`, 875 s; as for `O=C(CCN1CCN(CCO)CC1)N1c2ccccc2Sc2ccc(C(F)(F)F)cc21`, 673 s.
As for `Cc1nnc(N2CCCC(C(=O)NCCc3cccs3)C2)c2nn(-c3ccc(Cl)cc3)c(C)c12` (stereo unspecified), the figure is 762 s; as for `CN(C)c1cc(N2CCCC(NC(=O)Cc3ccsc3)C2)ncn1` (stereo unspecified), 870 s; as for `COc1cccc(-n2c(CN3CCN(c4ccccn4)CC3)nc3ccc([N+](=O)[O-])cc3c2=O)c1`, 647 s.
Turning to `Cc1cc(S(=O)(=O)N2CCCC(Cn3cnc4cccnc43)C2)ccc1Cl` (stereo unspecified), the RP-LC retention time is 866 s.
Next, `O=C(NCCCN1CCCCC1)C1CN(S(=O)(=O)c2cccnc2)CC12CCCCC2` (stereo unspecified): 573 s; `CC(C)NS(=O)(=O)c1ccc(NC(=O)Cn2cncn2)cc1`: 602 s.
The compound `Cc1onc(C(=O)N2CCCCCCNC(=O)[C@@H]3CCCC[C@@H]32)c1CN1CCCCC1` had an RP-LC retention time of 686 s.
Regarding `CCN(CC)CCNC(=O)c1cc(S(C)(=O)=O)ccc1OC`, the RP-LC retention time came out at 617 s.
As for `CSc1ccc(CNC(=O)c2cc3n(n2)CCCN(Cc2ccccc2)C3=O)cc1`, the figure is 895 s.
Next, `Cc1cc(-c2ccc(C)c(S(=O)(=O)N3CCN(c4ccccn4)CC3)c2)on1`: 719 s.
As for `CC1=C(c2ccc(C)c(C)c2)S(=O)(=O)N=C1N1CCCN(C(=O)C2CCCC2)CC1`, the figure is 912 s; as for `O=C1CC(Nc2ccc(N3CCCCC3)cc2)C(=O)N1c1ccccc1F` (stereo unspecified), 571 s; as for `CCn1c(N2CCN(C(=O)Nc3cccc(C(C)=O)c3)CC2)nc2ccccc21`, 576 s.
Compound `Nc1nc(N)c2nc(-c3cccc(O)c3)c(-c3cccc(O)c3)nc2n1` displayed an RP-LC retention time of 630 s.
Consider `O=C(Cc1nc(-c2ccccn2)n[nH]1)Nc1ccc(F)cc1F`, for which the RP-LC retention time was 652 s.
Next, `COc1ccc(-c2noc(C3CC(=O)N(c4ccc(Cl)cc4)C3)n2)cc1OC` (stereo unspecified): 950 s; `Cc1c(CCC(=O)NCC(=O)N[C@@H](C(=O)O)C(C)C)c(=O)oc2c(C)c(O)ccc12`: 636 s; `COC(=O)c1c(C)[nH]c(C(=O)N2CCC(CC(=O)N3CCCCC3)CC2)c1C`: 716 s.
Next, `Cc1cc(C)cc(Oc2nccn3c(=O)n(CC(=O)Nc4ccccc4C)nc23)c1`: 838 s.
Next, `CC(C)C1c2nccn2CCCN1C(=O)c1ccc2c(c1)OCO2` (stereo unspecified): 603 s.
`COc1ccc(S(=O)(=O)CCC(=O)Nc2ccc(Cl)c3ncsc23)cc1` showed an RP-LC retention time of 707 s.
The compound `CCc1ccc(NC(=O)N2CC(n3cnnc3C3CCOCC3)C2)cc1` yielded an RP-LC retention time of 599 s.
As for `O=C(NCCC1=CCCCC1)c1nnc(-c2ccc(S(=O)(=O)N3CCOCC3)cc2)o1`, the figure is 984 s; as for `CCn1cc(-c2nc(CC(=O)Nc3ccccc3F)cs2)c2cccnc21`, 874 s; as for `CCCCN1C(=O)C(NC(=O)CCc2ccccc2)(C(F)(F)F)C(C(=O)OC)=C1C` (stereo unspecified), 1030 s.
In turn, `O=C(NC1CCCCCCC1)C1CC(=O)N(CCc2c[nH]c3ccc(Cl)cc23)C1` (stereo unspecified) showed an RP-LC retention time of 732 s.
Compound `Cn1nccc1-c1cccc(-c2noc(-c3ccc(F)cc3Cl)n2)c1` showed an RP-LC retention time of 1190 s.
In turn, `Cc1sc2ccn(C)c(=O)c2c1C(=O)NCc1ccc(F)cc1Cl` came in with an RP-LC retention time of 827 s.
Compound `CCOc1ccc(-c2noc(Cc3nc(-c4ccc(F)cc4)cs3)n2)cc1` came in with an RP-LC retention time of 1290 s.
As for `CC(C)N1CCCC(Cn2cc(COc3ccc4c(c3)CCC4)nn2)C1` (stereo unspecified), the figure is 667 s.
As for `O=c1c2oc3ccccc3c2ncn1Cc1nc(-c2ccc(OC(F)(F)F)cc2)no1`, the figure is 1050 s; as for `O=C(Nc1nccs1)C1CCCN(c2ncnc3c2nc2n3CCCCC2)C1` (stereo unspecified), 730 s.
Compound `CS(=O)(=O)Nc1ccc(C2(C(=O)NCc3ccc(F)c(Cl)c3)CCCCC2)cc1` returned an RP-LC retention time of 950 s.
Next, `COc1ccc(NC(=O)Cn2nc3n(c2=O)CCCC3)cc1OC`: 595 s; `CC(C)C(C(=O)O)N1C(=O)c2cccc3cccc(c23)C1=O` (stereo unspecified): 795 s.
As for `CC(=O)N1CCc2nn(C)c(=O)n2CC1`, the figure is 543 s; as for `O=C([C@@H]1C[C@H](F)CN1S(=O)(=O)c1ccccc1)N1CCOCC1`, 643 s; as for `Oc1c(C(Nc2ccccn2)c2ccccc2F)ccc2cccnc12` (stereo unspecified), 604 s.
Next, `CCC(C)NC(=O)c1c(C)sc2ccn(CC)c(=O)c12` (stereo unspecified): 709 s; `O=C(Cn1c(=O)c(S(=O)(=O)c2ccccc2)cc2ccccc21)NCc1ccccc1`: 858 s.
`Cc1ccc(C(=O)N2CCN(c3nc(CN4CCOCC4)cs3)CC2)cc1` displayed an RP-LC retention time of 651 s.
On to `Cc1ccc(-c2noc(CN3N=NC4C(=O)N(c5ccc(C(C)C)cc5)C(=O)C43)n2)cc1` (stereo unspecified), for which the RP-LC retention time turned out to be 1150 s.
Next, `Cc1ccc(CNC(=O)C(C)Oc2cc(-c3ccccc3)c3c(C)nn(C)c3n2)o1` (stereo unspecified): 769 s; `O=c1n(CCc2ccccc2)nc2ccc(S(=O)(=O)N3CCOCC3)cn12`: 809 s; `Cc1ccc(-c2nc(N3CC(C)CC(C)C3)c3ccccc3n2)cc1` (stereo unspecified): 932 s.
Next, `CSc1ccc(CNC(=O)C2CCN(c3ccc(N4CCOCC4)nn3)CC2)cc1`: 638 s.
As for `CCOC(=O)c1noc2ncnc(Nc3ccc(C)c(C)c3)c12`, the figure is 1070 s.
In turn, `C=CCn1c(C)c(CC(=O)NC(C)C)c(=O)n2nc(-c3ccccc3)nc12` displayed an RP-LC retention time of 733 s.
Next, `COc1cccc(CNC(=O)Nc2c(-c3ccccc3)nc3ccccn23)c1`: 653 s.
